Common to all, as to format: in vitro ADME
A short description of series [1]: Liver microsomal stability, rat. Particulars: 1 µM compound; 0.5 mg/mL microsomes; NADPH; 30 minutes at 37°C. Put shortly:
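Compound (1 µM) incubated with liver microsomes (0.5 mg/mL; human, dog, rat, mouse) in 0.1 M phosphate pH 7.4, 5 min preincubation at 37°C, then 30 min with NADPH-generating system. Acetonitrile quench; remaining parent quantified by LC-MS/MS.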
Background: Liver microsomes are vesicles of endoplasmic reticulum, rich in cytochrome P450 enzymes.

Series [2] has as its target T1, CYP1A2 (Homo sapiens, UniProt P05177).
T1 construct: human liver microsomes (0.25 mg/mL); from tissue; host or cells: human liver microsomes
T1 sequence (P05177 1-516): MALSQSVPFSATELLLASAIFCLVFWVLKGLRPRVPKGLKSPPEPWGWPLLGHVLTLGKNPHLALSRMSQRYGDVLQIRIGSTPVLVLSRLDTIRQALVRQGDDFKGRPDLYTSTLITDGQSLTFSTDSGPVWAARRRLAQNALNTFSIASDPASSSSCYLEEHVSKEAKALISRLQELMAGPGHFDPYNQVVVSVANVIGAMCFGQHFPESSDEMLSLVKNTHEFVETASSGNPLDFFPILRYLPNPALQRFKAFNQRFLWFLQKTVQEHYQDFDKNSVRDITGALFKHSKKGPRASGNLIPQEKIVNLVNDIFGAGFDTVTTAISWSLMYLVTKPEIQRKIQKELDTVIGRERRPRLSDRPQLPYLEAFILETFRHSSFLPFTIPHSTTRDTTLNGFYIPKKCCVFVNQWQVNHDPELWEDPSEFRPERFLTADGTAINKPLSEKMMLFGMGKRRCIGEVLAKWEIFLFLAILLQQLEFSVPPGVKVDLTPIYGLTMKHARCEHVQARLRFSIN
In words: CYP isoenzyme activity inhibition in human liver microsomes, CYP1A2. The settings on record: 10 µM compound; human liver microsomes 0.25 mg/mL; relative to control without compound. Put shortly:
(§1)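 Human liver microsomes 0.25 mg/mL, pH 7.4 phosphate, with cocktail substrates phenacetin 50 µM (1A2), diclofenac 10 µM (2C9), S-mephenytoin 100 µM (2C19), midazolam 2.5 µM (3A4); compound at 10 µM. 5 min pre-incubation, then NADPH for 15 min at 37 °C; metabolites by LC-MS/MS MRM, reported as % activity of no-compound control.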

In series [3] the target is T2, CYP2C19 (Homo sapiens, UniProt P33261).
T2 construct: human liver microsomes (0.25 mg/mL); from tissue; host or cells: human liver microsomes
T2 sequence (P33261 whole entry): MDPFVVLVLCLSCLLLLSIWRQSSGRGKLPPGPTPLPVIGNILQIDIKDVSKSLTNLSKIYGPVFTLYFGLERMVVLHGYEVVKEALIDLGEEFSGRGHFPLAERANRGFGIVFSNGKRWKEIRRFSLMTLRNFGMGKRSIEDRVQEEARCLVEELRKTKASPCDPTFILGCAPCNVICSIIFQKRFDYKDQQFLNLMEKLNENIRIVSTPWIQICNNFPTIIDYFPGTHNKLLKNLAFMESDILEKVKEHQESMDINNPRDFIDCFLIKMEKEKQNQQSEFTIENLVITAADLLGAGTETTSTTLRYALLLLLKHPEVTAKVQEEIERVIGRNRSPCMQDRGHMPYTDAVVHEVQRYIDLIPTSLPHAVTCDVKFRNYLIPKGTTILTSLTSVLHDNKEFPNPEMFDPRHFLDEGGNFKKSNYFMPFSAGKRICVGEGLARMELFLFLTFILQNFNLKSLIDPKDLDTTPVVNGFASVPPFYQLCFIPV
In words: CYP isoenzyme activity inhibition in human liver microsomes, CYP2C19. The settings on record: 10 µM compound; human liver microsomes 0.25 mg/mL; relative to control without compound. Summed up:
as §1

Series [4] addresses T3, CYP2D6 (Homo sapiens, UniProt P10635).
T3 construct: human liver microsomes (0.25 mg/mL); from tissue; host or cells: human liver microsomes
In words: CYP isoenzyme activity inhibition in human liver microsomes, CYP2D6. Particulars: 10 µM compound; human liver microsomes 0.25 mg/mL; relative to control without compound.

Series [5] deals with T4, CYP2C9 (Homo sapiens, UniProt P11712).
T4 construct: human liver microsomes (0.25 mg/mL); from tissue; host or cells: human liver microsomes
T4 sequence (P11712 whole entry): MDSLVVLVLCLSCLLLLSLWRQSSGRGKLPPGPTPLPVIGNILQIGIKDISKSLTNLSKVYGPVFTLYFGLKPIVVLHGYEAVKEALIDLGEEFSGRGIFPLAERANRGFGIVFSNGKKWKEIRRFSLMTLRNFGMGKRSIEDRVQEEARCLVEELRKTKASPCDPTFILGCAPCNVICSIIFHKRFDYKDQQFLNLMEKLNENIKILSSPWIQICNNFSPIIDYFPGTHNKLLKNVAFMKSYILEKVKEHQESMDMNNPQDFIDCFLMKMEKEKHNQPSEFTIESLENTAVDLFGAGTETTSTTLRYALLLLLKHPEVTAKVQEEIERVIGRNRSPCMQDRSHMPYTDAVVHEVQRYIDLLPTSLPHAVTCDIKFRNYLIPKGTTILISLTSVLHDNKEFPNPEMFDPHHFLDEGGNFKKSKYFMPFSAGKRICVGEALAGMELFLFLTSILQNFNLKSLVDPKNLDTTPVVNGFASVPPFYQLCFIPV
As to the kind of experiment: CYP isoenzyme activity inhibition in human liver microsomes, CYP2C9. Particulars: 10 µM compound; human liver microsomes 0.25 mg/mL; relative to control without compound. Put shortly: as §1

T3 sequence (P10635 whole entry): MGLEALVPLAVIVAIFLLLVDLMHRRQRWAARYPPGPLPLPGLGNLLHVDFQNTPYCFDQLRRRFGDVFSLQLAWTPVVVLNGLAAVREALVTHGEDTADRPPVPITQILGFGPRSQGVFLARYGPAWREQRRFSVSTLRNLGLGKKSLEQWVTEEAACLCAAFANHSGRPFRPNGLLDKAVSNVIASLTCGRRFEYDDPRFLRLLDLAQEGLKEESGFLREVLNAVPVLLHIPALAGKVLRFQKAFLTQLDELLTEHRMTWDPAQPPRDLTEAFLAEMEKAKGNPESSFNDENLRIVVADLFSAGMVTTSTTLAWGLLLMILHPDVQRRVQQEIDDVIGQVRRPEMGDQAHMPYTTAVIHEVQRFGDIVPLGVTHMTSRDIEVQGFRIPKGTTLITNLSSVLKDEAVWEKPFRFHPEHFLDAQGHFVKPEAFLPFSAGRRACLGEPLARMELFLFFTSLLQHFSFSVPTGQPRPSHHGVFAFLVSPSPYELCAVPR

In the case of `Cn1c(N2C3CCC2COC3)nc2ccc(NN=C(C#N)C#N)cc21` [Compound 34, (2-(3-oxa-8-azabicyclo[3.2.1]octan-8-yl)-1-methyl-1H-benzo[d]imidazol-6-yl)carbonohydrazonoyl dicyanide], in series [1], the “Rat microsomes (% remaining)” value was 97.1 % remaining. Also, the “CYP1A2 (% activity)” value in series [2] worked out at 85.8 % activity. For the same molecule, the “CYP2C19 (% activity)” value in series [3] was determined as 80.6 % activity. Moreover, the “CYP2D6 (% activity)” value in series [4] was found to be 92.4 % activity. The “CYP2C9 (% activity)” value in series [5] came to 80.8 % activity.

As for `Cn1c(N2C3CCC2COC3)nc2cc(NN=C(C#N)C#N)ccc21` [Compound 35, (2-(3-oxa-8-azabicyclo[3.2.1]octan-8-yl)-1-methyl-1H-benzo[d]imidazol-5-yl)carbonohydrazonoyl dicyanide], the “Rat microsomes (% remaining)” value in series [1] is on record as 74.1 % remaining. For the same molecule, the “CYP1A2 (% activity)” value in series [2] was 81.5 % activity. Besides, in series [3], the “CYP2C19 (% activity)” value is 82 % activity. In addition, the “CYP2D6 (% activity)” value in series [4] came to 94.9 % activity. Further, in series [5], the “CYP2C9 (% activity)” value is 84.3 % activity.

Consider `N#CC(C#N)=NNc1ccc2nc(NC(=O)N3CCOCC3)sc2c1` [Compound 38, (2-(morpholine-4-carboxamido)benzo[d]thiazol-6-yl)carbonohydrazonoyl dicyanide], for which, in series [1], the “Rat microsomes (% remaining)” value is given as 96.0 % remaining. For the same molecule, the “CYP1A2 (% activity)” value in series [2] was 83.9 % activity. For the same molecule, in series [3], the “CYP2C19 (% activity)” value is given as 80 % activity. Moreover, the “CYP2D6 (% activity)” value in series [4] came out at 95.7 % activity. The “CYP2C9 (% activity)” value in series [5] is 73.6 % activity.

In the case of `CC1CN(C(=O)Nc2nc3ccc(NN=C(C#N)C#N)cc3s2)CC(C)O1` (stereo not drawn) [Compound 39, (2-(2,6-dimethylmorpholine-4-carboxamido)benzo[d]thiazol-6-yl)carbonohydrazonoyl dicyanide], the “Rat microsomes (% remaining)” value in series [1] was found to be 82.3 % remaining. In addition, in series [2], the “CYP1A2 (% activity)” value was found to be 84 % activity. Also, the “CYP2C19 (% activity)” value in series [3] is listed as 78.6 % activity. Besides, the “CYP2D6 (% activity)” value in series [4] was found to be 85.9 % activity. In series [5], the “CYP2C9 (% activity)” value is listed as 42.9 % activity.

For the molecule `N#CC(C#N)=NNc1ccc2nc(NC(=O)N3CC4CCC(C3)O4)sc2c1` [Compound 40, (2-(8-oxa-3-azabicyclo[3.2.1]octane-3-carboxamido)benzo[d]thiazol-6-yl)carbonohydrazonoyl dicyanide], the “Rat microsomes (% remaining)” value in series [1] turned out to be 87.7 % remaining. Also, in series [2], the “CYP1A2 (% activity)” value worked out at 80.2 % activity. The “CYP2C19 (% activity)” value in series [3] is 65.7 % activity. Also, the “CYP2D6 (% activity)” value in series [4] worked out at 88.6 % activity. Moreover, the “CYP2C9 (% activity)” value in series [5] stood at 46.9 % activity.

For `N#CC(C#N)=NNc1ccc2nc(N3CC[C@@H](F)C3)oc2c1` [Compound 41, (R)-(2-(3-fluoropyrrolidin-1-yl)benzo[d]oxazol-6-yl)carbonohydrazonoyl dicyanide], in series [1], the “Rat microsomes (% remaining)” value came out at 19.0 % remaining. Further, in series [2], the “CYP1A2 (% activity)” value worked out at 71.9 % activity. Besides, the “CYP2C19 (% activity)” value in series [3] is on record as 86.7 % activity. In addition, the “CYP2D6 (% activity)” value in series [4] came out at 86.8 % activity. In addition, in series [5], the “CYP2C9 (% activity)” value was determined as 51.2 % activity.

(Values after patent publication EP4737445A1, “NOVEL SATURATED HETEROCYCLE-SUBSTITUTED HETEROARYL-CARBONOHYDRAZONOYL DICYANIDE COMPOUND AND USE THEREOF” (Korea Institute of Science and Technology, priority 2023, dated 2025).)
